This note sets out measurements from patent publication US10100088B2, “Glycopeptide derivatives for the preservation and protection of biological materials and microorganisms” (TFCHEM, priority 2014, dated 2018).

For this data set, the system named is human neonatal skin fibroblasts (CCD-27SK, ATCC CRL-1475). The experiment in a line: Starvation (serum deprivation) stress, neutral red uptake viability. As to conditions: for preservative/protective effect on skin fibroblasts (in words): starvation medium. The data set is classed as cell-based. The procedure: Induced stresses were performed as follow: Starvation
The neutral red uptake assay was used for the determination of cell viability. This assay is based on the ability of viable cells to incorporate and bind the supravital dye neutral red in its lysosomes. So, only the viable cells are dyed. At different times after the stress assay (T0), the plates were incubated with neutral red solution for 3.5 hours. The cells are subsequently washed, the dye is extracted in each well and the absorbance is read using a spectrophotometer.
For sampling, 1 mL of DMEM (without phenol red indicator) with neutral red (OD=0.110) was added to the cells for 3.5 hours (37° C., 10% CO2). After incubation, the medium was removed, two washes of PBS were realized and 1 mL of extraction solution (absolute ethanol 49%, ultrapure water 49%, glacial acetic acid 2%) was added. Plates were placed 15 minutes on rotary shaker in the dark before reading OD at 540 nm.
The OD540 nm average value of positive control was considered as 100% of viability.
The percentage of viability for each assay was calculated as follow: % viability assay=(OD540 nm of tested solution−blank)*100/(OD540 nm of positive control−blank).

[1] abbreviates: D4 after serum deprivation, 10 mg/mL, positive control with 5% FBS (Table 3).
Setting [2] is: D8 after serum deprivation, 10 mg/mL, positive control with 5% FBS (Table 3).

With `C[C@H](NC(=O)[C@@H](N)CCCCNCC(F)(F)C1(O)O[C@H](CO)[C@H](O)[C@H](O)[C@H]1O)C(=O)O.Cl.Cl` (stereo partly drawn) [Compound 22], the “preservative/protective effect on skin fibroblasts (in words)” value (“preservative/protective effect” for short) is listed as “significant preservative/protective effect”. Besides, the Percentage of viability (D4 after serum deprivation, 10 mg/mL (Table 4)) came out at 93%.
Take `C[C@H](NC(=O)CNC(=O)[C@@H](N)CCCCNCC(F)(F)C1(O)O[C@H](CO)[C@H](O)[C@H](O)[C@H]1O)C(=O)O.Cl.Cl` (stereo partly drawn) [Compound 28]: the “preservative/protective effect” value was “significant preservative/protective effect”. Moreover, under setting [1], the Percentage of viability was 109 ± 2.05%. Besides, the Percentage of viability under setting [2] amounted to 108 ± 3.40%.
For `Cl.Cl.N[C@@H](CCCCNCC(F)(F)C1(O)O[C@H](CO)[C@H](O)[C@H](O)[C@H]1O)C(=O)NCC(=O)NCC(=O)O` (stereo partly drawn) [Compound 24], in that order: “significant preservative/protective effect”, 99 ± 3.35% and 95 ± 1.60%.
For `C[C@H](NC(=O)[C@@H](N)CCCCNCC(F)(F)C1(O)O[C@H](CO)[C@H](O)[C@H](O)[C@H]1O)C(=O)N1CCC[C@H]1C(=O)O.Cl.Cl` (stereo partly drawn) [Compound 34], in that order: “significant preservative/protective effect”, 103 ± 1% and 103 ± 2%.
For `C[C@H](N)C(=O)N[C@@H](CCCCNCC(F)(F)C1(O)O[C@H](CO)[C@H](O)[C@H](O)[C@H]1O)C(=O)N[C@@H](C)C(=O)O.Cl.Cl` (stereo partly drawn) [Compound 38], in that order: “significant preservative/protective effect”, 101 ± 3% and 88 ± 3%.
In the case of `CC(=O)O.CC(=O)O.C[C@H](NC(=O)[C@H](C)NC(=O)[C@@H](N)CCCCNCC(F)(F)C1(O)O[C@H](CO)[C@H](O)[C@H](O)[C@H]1O)C(=O)O` (stereo partly drawn) [Compound 20], the “preservative/protective effect” value was “significant preservative/protective effect”. The Percentage of viability (D 1 after serum deprivation, 5 mg/mL (Table 2)) stood at 87%. Also, under “D 4 after serum deprivation, 5 mg/mL (Table 2)”, the Percentage of viability came to 63%. In addition, the Percentage of viability (D 7 after serum deprivation, 5 mg/mL (Table 2)) is recorded as 50%.
For the compound `C[C@H](NC(=O)[C@@H](N)CCCCNCC(F)(F)C1(O)O[C@H](CO)[C@H](O)[C@H](O)[C@H]1O)C(=O)NCC(=O)O.Cl.Cl` (stereo partly drawn) [Compound 26], the “preservative/protective effect” value is given as “significant preservative/protective effect”. The Percentage of viability under setting [1] amounted to 89 ± 1.21%. Further, the Percentage of viability under setting [2] stood at 64 ± 2.78%.
For `Cl.Cl.N[C@@H](CCCCNCC(F)(F)C1(O)O[C@H](CO)[C@H](O)[C@H](O)[C@H]1O)C(=O)O` (stereo partly drawn) [Compound 44], in that order: “significant preservative/protective effect”, 111 ± 2.9% and 102 ± 1.3%.
On to `C[C@H](NC(=O)[C@H](C)NC(=O)[C@@H](N)CCCNCC(F)(F)C1(O)O[C@H](CO)[C@H](O)[C@H](O)[C@H]1O)C(=O)O.Cl.Cl` (stereo partly drawn) [Compound 30], for which the “preservative/protective effect” value was “significant preservative/protective effect”. Besides, the Percentage of viability under setting [1] is listed as 92 ± 1.2%. Also, under setting [2], the Percentage of viability was 74 ± 0.5%.
